Results: ChEMBL document CHEMBL1127083 (J Med Chem, 1993)

What was measured:
[1] = molecular target: Leukotriene B4 receptor 1 (Homo sapiens, UniProt Q15722); assay: Tested for inhibition of specific binding of [3H]LTB4 to human neutrophil expressing LTB4 receptor
Leukotriene B4 receptor = Leukotriene B4 receptor (Homo sapiens, UniProt Q9NPC1+Q15722); assay: Inhibition of LTB4-induced up-regulation of human neutrophil CD11b/CD18 integrin; format: functional

Leukotriene B4 receptor 1, sequence (Q15722 whole entry): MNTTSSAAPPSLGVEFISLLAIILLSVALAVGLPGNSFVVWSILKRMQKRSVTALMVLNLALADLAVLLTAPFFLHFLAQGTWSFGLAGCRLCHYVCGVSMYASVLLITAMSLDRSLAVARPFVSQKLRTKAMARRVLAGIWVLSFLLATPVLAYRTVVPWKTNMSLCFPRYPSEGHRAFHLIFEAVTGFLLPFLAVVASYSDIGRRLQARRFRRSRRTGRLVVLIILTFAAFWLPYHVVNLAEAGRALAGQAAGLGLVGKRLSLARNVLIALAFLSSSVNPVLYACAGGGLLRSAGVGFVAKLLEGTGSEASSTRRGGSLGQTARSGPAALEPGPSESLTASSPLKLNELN

Ki [1]	IC50 (Leukotriene B4 receptor)	SMILES
22 nM	5.4 nM	CCc1cc(-c2ccccc2)c(O)cc1OCCCOc1ccc2c(=O)c3ccccc3oc2c1CCC(=O)O
36 nM	1.8 nM	CCc1cc(-c2ccc(F)cc2)c(O)cc1OCCCOc1ccc2c(=O)c3ccccc3oc2c1CCC(=O)O
0.47 nM	1.2 nM	CCc1cc(-c2ccc(F)cc2)c(O)cc1OCCCOc1ccc2c(=O)c3cc(C(=O)O)ccc3oc2c1CCC(=O)O
0.57 nM	3.4 nM	CCc1cc(-c2ccccc2)c(O)cc1OCCCOc1ccc2c(=O)c3cc(C(=O)O)ccc3oc2c1CCC(=O)O
